In paper PMC10685318, “Trans-cyclosulfamidate mannose-configured cyclitol allows isoform-dependent inhibition of GH47 α-D-mannosidases through a bump–hole strategy” (Chemical Science, 2023):

Molecular target: T1, MAN2A1 (Homo sapiens, UniProt Q16706)
T1 construct: expressed in transfected cells
T1 sequence (Q16706 1-1144): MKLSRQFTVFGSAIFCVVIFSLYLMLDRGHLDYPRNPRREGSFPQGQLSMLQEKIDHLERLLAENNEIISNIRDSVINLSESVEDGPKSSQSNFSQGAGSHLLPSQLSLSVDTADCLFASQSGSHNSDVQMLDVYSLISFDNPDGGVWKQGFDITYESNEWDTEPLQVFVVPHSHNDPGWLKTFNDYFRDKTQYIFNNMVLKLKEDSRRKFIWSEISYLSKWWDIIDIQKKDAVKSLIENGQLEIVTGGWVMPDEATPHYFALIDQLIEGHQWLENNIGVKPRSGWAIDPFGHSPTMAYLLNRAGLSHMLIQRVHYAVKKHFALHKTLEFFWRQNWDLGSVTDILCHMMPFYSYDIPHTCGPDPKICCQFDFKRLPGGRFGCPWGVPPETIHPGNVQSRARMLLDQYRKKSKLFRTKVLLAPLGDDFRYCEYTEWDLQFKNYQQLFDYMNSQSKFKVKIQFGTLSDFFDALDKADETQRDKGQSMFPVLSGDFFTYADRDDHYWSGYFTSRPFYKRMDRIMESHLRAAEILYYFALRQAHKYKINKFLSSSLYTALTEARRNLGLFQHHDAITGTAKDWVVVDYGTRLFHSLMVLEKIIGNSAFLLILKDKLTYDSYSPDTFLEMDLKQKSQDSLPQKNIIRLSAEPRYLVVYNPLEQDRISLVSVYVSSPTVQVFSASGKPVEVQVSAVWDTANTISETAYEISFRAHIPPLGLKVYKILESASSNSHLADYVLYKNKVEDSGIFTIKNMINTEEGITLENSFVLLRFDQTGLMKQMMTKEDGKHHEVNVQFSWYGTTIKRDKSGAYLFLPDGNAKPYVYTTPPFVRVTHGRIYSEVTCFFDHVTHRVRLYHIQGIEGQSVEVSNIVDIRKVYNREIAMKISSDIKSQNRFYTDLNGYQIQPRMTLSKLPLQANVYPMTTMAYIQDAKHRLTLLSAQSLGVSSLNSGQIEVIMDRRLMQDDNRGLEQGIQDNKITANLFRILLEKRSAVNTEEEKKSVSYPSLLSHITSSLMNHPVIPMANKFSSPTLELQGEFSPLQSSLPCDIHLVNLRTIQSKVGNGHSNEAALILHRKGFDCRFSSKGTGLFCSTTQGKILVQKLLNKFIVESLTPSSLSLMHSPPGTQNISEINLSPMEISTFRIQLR
Test: 4-MU-α-man activity assay in overexpressed cell lysates
Type: biochemical
Source text: Finally, selectivity versus a panel of related exo-mannosidases was investigated. We first tested inhibition against all five human GH38 retaining α-mannosidases in overexpressed cell lysates using 4-methylumbelliferyl-α-mannoside (4-MU-α-man): Golgi mannosidase II and IIx (MAN2A1 and MAN2A2), cytosolic MAN2C1 and lysosomal MAN2B1 and MAN2B2. This α-mannosidase family follows a different conformational itinerary than GH47: ^0S2 → B2,5 → ^1S5.[35] […] Of note, the presence of cobalt has been associated with conformational changes in the active site of some GH38 α-mannosidases, which might affect the binding interaction with inhibitors.[36] Nevertheless, additional research is required to explore which specific metal ion is present in the MAN2C1 active site in its in vivo state.
Trans-Cyclosulfamidate Cyclitols Males et al.
2.3 GH38 α-mannosidases and GH2 β-mannosidase inhibition studies
All chemicals were of analytical grade and purchased from Sigma-Aldrich unless stated otherwise.
Optimal stability of cell homogenates and enzyme working stocks was ensured by preparation and temporary storage on ice. Cell homogenates were prepared and used on the same day. Protein concentrations were quantified using the Pierce BCA Protein Assay Kit (ThermoFisher). Protein samples were measured in clear flat-bottom polystyrene 96 well microplates (Greiner Bio-One) using a EMax Plus Microplate Reader (Molecular Devices). Activity measurements of human GH38 α-mannosidases and bacterial β-mannosidase BtMan2A were performed in black flat-bottom polystyrene 96 wells microplates (Greiner Bio-One) and total fluorescence was measured using a Perkin Elmer LS-55 fluorescence spectrometer at wavelengths λex = 366 and λem = 445 nm, with the signal optimized for medium gain readings. The fluorescence values of each enzyme sample were corrected for the background signal of a blank sample containing no enzyme. In the case of IC50 determinations, values were normalized against a control sample containing enzyme without added inhibitor. For a single experiment, three separate curves were fitted from a technical triplicate by setting the inhibitor concentration in µM against the normalized response using GraphPad Prism 8.4.2 software. The Prism functions ‘[inhibitor] versus normalized response’ and ‘[inhibitor] versus normalized response -- variable slope’ were compared for each curve using the Akaike’s Information Criterion method to select the preferred model. Reported IC50 values are mean ± standard deviation from a biological […]
General cell culture protocol
HEK293T cells were grown to confluency at 37 °C under a 5% CO2 atmosphere in Dulbecco’s Modified Eagle’s Medium (DMEM) with a high glucose concentration (Capricorn Scientific, DMEM-HPXA) that was supplemented with 10% fetal calf serum, 0.1% (w/v) penicillin/streptomycin and 1% (v/v) Glutamax. Cells were passaged twice a week to new round polystyrene (PS) tissue culture dishes (Sarstedt) by detachment off the former culture plates by careful pipetting. To prepare cell pellets for activity measurements, plates were grown to confluency and harvested in phosphate buffered saline (PBS). After centrifugation at 1500 rpm for 5 min, the remaining PBS was aspirated and the cells were resuspended in fresh PBS. The concentration of the resulting suspension was then counted using a TC20 automated cell counter (BioRad). Aliquots were centrifuged at 2000 rpm for 5 min and the resulting cell pellets were stored at -80 °C until further use.
4-MU activity assay protocol for human GH38 α-mannosidases
HEK293T cells stably overexpressing human GH38 α-mannosidases MAN2A1, MAN2A2, MAN2B1, MAN2B2 and MAN2C1 were prepared as previously described[11] and were kindly donated by Dr. C. L.
Kuo. Homogenates were prepared by sonicating cell pellets (Sonics VibraCell, 5x1 s with 30 s interval at 20% amplitude) in 150 mM McIlvain buffer of pH 5.5 (MAN2A1, MAN2A2), pH 4.5 (MAN2B1, MAN2B2) or pH 6.7 (MAN2C1) containing either 2 mM ZnCl2 (MAN2A1, MAN2A2, MAN2B1, MAN2B2) […]

How did the “activity when the buffer was enriched with CoCl2” value (CoCl2) turn out when `O=S1(=O)N[C@@H]2[C@@H](O)[C@@H](O)[C@H](O)[C@@H](CO)[C@H]2O1` [compound 6, 1,6-trans-manno-cyclosulfamidate] was run?
The value was “no activity”.

And the IC50 (Zn2+)?
Its IC50 is > 1000 µM.
